Where a SMILES comes first, the peptide text is derived from it. The star is where a group is joined. X1 = CCCCCCCCCCCCCCNC(=O)OC[C@H](C*)OC(=O)NCCCCCCCCCCCCCC; Palmitoyl = CCCCCCCCCCCCCCCC(=O)*
Key:
[1] = Plasma stability; type: in vitro ADME; settings: compared with Pam3, Figure S3B
Text: Pam3 is a lipopeptide and serves as a TLR2 agonist through binding to TLR2/TLR1 heterodimer. Although Pam3 is widely used as a TLR2 agonist, some intrinsic problems remain in detailed mechanism studies and drug development. The two ester groups of Pam3 can be easily hydrolyzed in plasma, and the hydroxyl group in serine could be readily oxidized in physiological conditions (Figure S1A in Supplementary Material). […] In addition, we displaced serine residue in Pam3 with glycine residue to eliminate this chiral center (Figures S1A,B in Supplementary Material). Since the third lysine residue in Pam3 is crucial for H bonding, we kept three lysine residues in the new molecule and removed the forth lysine residue to further reduce the molecular weight of the new TLR2 agonist, (2S,5S,8S,14R,18R)-2,5,8-tris(4-aminobutyl)-4,7,10,13,21-pentaoxo-14-palmitamido-18-((tetradecylcarbamoyl)oxy)-20-oxa-16-thia-3,6,9,12,22-pentaazahexatriacontan-1-oic acid. It is termed SUP3 (Figure 1A; Figures S1A,B in Supplementary Material). Chemical characterization of SUP3 by ^1H nuclear magnetic resonance and electrospray ionization mass spectrum analysis further confirm the structure (Figures S2A,B in Supplementary Material).

[2] = system: OVA-expressing B16 melanoma cells (B16-OVA); test: B16-OVA melanoma lung metastasis tumor model after immunization; type: in vivo, mice; settings: immunized OCS + 2 nmol per mouse for 30 days, B16-OVA 5 × 10^5 cells i.v., 16 days after challenge; vs OCS alone or OCS with Pam3
Text: Tumor model was applied as previously described with some modifications ([42]). Briefly, mice were immunized by OCS alone, OCS with Pam3 (2 nmol per mouse), or OCS with SUP3 (2 nmol per mouse) for 30 days. Then mice were i.v. injected with OVA-expressing B16 melanoma cells (B16-OVA) (5 × 10^5 cells per mouse). After 16 days, the numbers of metastatic tumors in lung were counted.
Figure 2 SUP3 induced more vigorous cytotoxic T lymphocytes (CTLs) responses than Pam3CSK4 without excessive production of inflammatory cytokines in vivo. […] The percentages of pentamer positive cells (CD19^− CD3^+ CD8^+ SIINFEKL/H-2Kb-Pentamer^+) in spleens, i.e., the OVA-specific CD8^+ T cells, were determined by flow cytometry (A) and the statistic calculation is presented in (B). […] (C,D) Mice were immunized as in (A) for 30 days, then inoculated with OVA-expressing B16 melanoma cells (B16-OVA) (5 × 10^5 cells per mouse) by i.v. injection and analyzed for metastatic tumor formation in the lung 16 days after inoculation. […] (E) Mice were i.v. injected with SUP3 (2 nmol per mouse), Pam3 (2 nmol per mouse), or lipopolysaccharide (LPS) (1 µg per mouse) for 1 h, the serum was collected, and the levels of different cytokines were determined by ELISA. “n.d.” indicates “not detected.” *p < 0.05, **p < 0.01. […]

[3] = system: splenic B cells; test: Total IgM production by B cells in vitro; type: cell-based, mice; settings: 200 nM, 3 or 5 days, ELISA; vs Pam3
Text: Splenic DCs were purified as described previously ([37]). CD8^+ cDCs expanded by B16-Flt3L inoculation were enriched, and then CD8^+ cDCs were positively sorted by MACS technology (Miltenyi Biotec). Splenic B cells were purified through negative selection by Streptavidin-MicroBeads (Miltenyi Biotec 130-048-102) combined with different antibodies cocktail to exclude non-B cells. The antibodies cocktail was composed of biotinylated antibodies against CD4 (T cells and DCs) (eBioscience, clone GK1.5), CD8 (T cells and DCs) (eBioscience, clone 53-6.7), CD43 (T cells, monocytes, granulocytes) (eBioscience, clone eBioR2/60), and Ter119 (erythrocytes) (eBioscience, clone TER119). B cells were further purified through MACS LS column (Miltenyi Biotec 130-042-401).
Splenic DCs (5 × 10^5 cells/mL) were stimulated by Pam3 (200 nM), SUP3 (200 nM), or CpG ODN 1668 (20 nM; Adipogen IAX-200-001) in the GM-CSF (20 ng/mL) supplemented medium for indicated periods. […] Cytokines (IL-6, eBioscience 88-7064; TNFα, eBioscience 88-7324; IL-12p40, BioLegend 431604), chemokine (MIP1α, R&D Systems DY450-05), and total IgM (eBioscience, 88-50470) were quantified by ELISA kits following the instructions of manufacturers.
Figure 7 SUP3 promoted stronger B cell activation in vitro. […] (B) Supernatants were harvested 3 or 5 days post-stimulation, and total IgM in the supernatant was determined by ELISA. […]

SMILES: CCCCCCCCCCCCCCCC(=O)N[C@@H](CSC[C@@H](COC(=O)NCCCCCCCCCCCCCC)OC(=O)NCCCCCCCCCCCCCC)C(=O)NCC(=O)N[C@@H](CCCCN)C(=O)N[C@@H](CCCCN)C(=O)N[C@@H](CCCCN)C(=O)O [SUP3, (2S,5S,8S,14R,18R)-2,5,8-tris(4-aminobutyl)-4,7,10,13,21-pentaoxo-14-palmitamido-18-((tetradecylcarbamoyl)oxy)-20-oxa-16-thia-3,6,9,12,22-pentaazahexatriacontan-1-oic acid] (Palmitoyl-C(X1)GKKK-OH)
- plasma stability [1]: much higher than Pam3
- number of metastatic tumors in the lungs [2]: markedly reduced number of tumors in the lungs
- antigen-independent production of IgM by B cells [3]: more

— paper PMC5318439, “The Novel Toll-Like Receptor 2 Agonist SUP3 Enhances Antigen Presentation and T Cell Activation by Dendritic Cells” (Frontiers in Immunology, 2017)
